Reference: US8017350B2, “Glimepiride- and insulin-induced glycosylphosphatidylinositol-specific phospholipase C regulation” (Sanofi-Aventis Deutschland GmbH, priority 2004, dated 2011)
“Also recorded” adds a separate entry of the source.

What was measured:
[1] = target: T1, Lipoprotein lipase (LPL) from bovine milk (Bos taurus, UniProt P11151); test: lipoprotein lipase assay (radiolabeled triolein emulsion); format: biochemical; conditions: 50 μM
T1 construct: purchased SigmalAldrich (Deisenhofen, Germany); host or cells: bovine milk
T1 sequence (P11151 29-478): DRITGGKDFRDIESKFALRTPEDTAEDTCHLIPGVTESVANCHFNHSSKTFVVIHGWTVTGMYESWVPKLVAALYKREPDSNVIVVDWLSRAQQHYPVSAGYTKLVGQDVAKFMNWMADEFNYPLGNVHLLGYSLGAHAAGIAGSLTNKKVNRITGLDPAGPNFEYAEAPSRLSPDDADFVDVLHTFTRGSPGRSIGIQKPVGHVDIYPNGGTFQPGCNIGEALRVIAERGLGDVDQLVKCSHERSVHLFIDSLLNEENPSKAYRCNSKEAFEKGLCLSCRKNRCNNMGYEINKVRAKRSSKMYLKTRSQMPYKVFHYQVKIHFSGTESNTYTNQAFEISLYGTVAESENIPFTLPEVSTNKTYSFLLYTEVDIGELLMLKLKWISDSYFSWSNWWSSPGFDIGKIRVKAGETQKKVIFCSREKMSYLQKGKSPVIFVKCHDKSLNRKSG
Protocol: Hormone-sensitive lipase (HSL) and lipoprotein lipase (LPL) were measured using a radiolabeled triolein droplet emulsion as described in “Vertesy et al., (2002) Journal Antibiotics 55:480-494”. Pancreatic lipase (PL) was determined by incubation of 0.25 mmol tributyrin in 2 ml of 5 mM Tris/HCl (pH 6.5), 6 mM sodium taurodeoxycholate, 150 mM NaCl, 1 mM CaCl2 with porcine PL and colipase in the same buffer using a recording pH stat (stirring at 1000 rpm at 25° C.) with the pH adjusted to 6.5. PC-PLC was assayed by incubation of 0.2 ml of 10 mM dipalmitoyllecithin, 0.1 ml of 10 mM SDC and 0.1 ml of 0.03 M CaCl2 with bacterial PC-PLC (in 50 mM Tris/HCl, pH 7.5, 0.1% BSA) for 10 min at 37° C. The reaction was terminated by addition of 0.1 ml of 50% TCA and subsequently of 2.5 ml of […]. After centrifugation (1500×g, 15 min), 0.2-ml portions of the upper methanol/water phase (˜1.33 ml) were removed, supplemented with 0.5 ml of 60% HClO4, then heated at 170° C. for 1 h and finally analyzed for inorganic phosphate. Mammalian PI-PLC was measured by incubation of 0.1 ml of 10 mM PI, 0.1 ml of 0.8% sodium deoxycholate, 0.1% BSA, 0.2 ml of 100 mM sodium borate (pH 7.5) and rat liver PI-PLC for 20 min at 37° C. The reaction was terminated and further processed as described for the PC-PLC. […] Radioactive phosphatidic acid was detected by phosphorimaging. […]

[2] = target: phospholipase A2 (honey bee venom) (Apis mellifera, UniProt P00630); format: biochemical; conditions: 50 μM
phospholipase A2 (honey bee venom), sequence (P00630 34-167 limits assumed): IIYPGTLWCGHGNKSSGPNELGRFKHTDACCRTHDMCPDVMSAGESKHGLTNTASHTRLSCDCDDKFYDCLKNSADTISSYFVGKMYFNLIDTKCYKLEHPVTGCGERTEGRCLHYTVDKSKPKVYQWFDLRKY

[3] = tested on: GPI-proteins 5′-Nuc, Gce1 and aP in isolated rat adipocytes; test: localization of lipolytically cleaved and uncleaved GPI-proteins at hcDIGs, IcDIGs and total plasma membranes (TX-114 partitioning); format: cell-based
[4] = tested on: pp59Lyn and Gce1 interaction with caveolin-1 in rat adipocytes; test: dissociation of signaling proteins from caveolin (caveolin-1 immunoprecipitates of hcDIGs); format: cell-based; conditions: 50 μM
Protocol: Solubilized DIGs (see above, 5-20 μg protein) were precleared by incubation with protein A/G-Sepharose and subsequent centrifugation (10,000×g, 5 min). The supernatant was incubated with anti-caveolin-1 antibodies (1:1000) preadsorbed on protein A/G-Sepharose in 1 ml of 10 mM Tris/HCl (pH 7.4), 150 mM NaCl, 1% TX-100 for 1 h at 4° C. The immune complexes were washed twice with the same buffer and then twice with buffer lacking TX-100 and finally subjected to SDS-PAGE performed in the absence of β-mercaptoethanol. The recovery of immunoprecipitated caveolin was normalized by homologous immunoblotting with anti-caveolin antibodies of the same blot following stripping of the membrane.
Polypeptides separated by SDS-PAGE were transferred to polyvinylidene difluoride membranes using the semidry procedure as described in “Müller, G. et al., (2001) Mol. Cell. Biol. 21: 4553-4567”. Washed membranes were incubated with anti-caveolin-1 (1:2000), anti-pp59^Lyn (1:1250), anti-aP (1:500), anti-5′-Nuc (1:750) and anti-IRS-1 (1:2000) antibodies for 4 h at 15° C. Washed membranes were incubated with horseradish peroxidase-coupled secondary goat anti-mouse (1:2000) or goat anti-rabbit IgG (1:4000) antibodies. Labeled proteins were visualized by enhanced chemiluminescence.
FIG. 6: Effect of GPI-2350 on the glimepiride/insulin-induced dissociation of signaling proteins from caveolin. Isolated rat adipocytes were treated (5 min, 37° C.) without or with GPI-2350 (left panels, 50 μM; right panels, increasing conc.) and then incubated (120 min, 37° C.) in the absence or presence of insulin (10 nM) or glimepiride (20 μM). hcDIGs were prepared from the adipocytes and then solubilized. Caveolin-1 immunoprecipitates prepared from the solubilized hcDIGs were assayed for the presence of pp59^Lyn and Gce1 by immunoblotting and photoaffinity-labeling, respectively. […]

[5] = amphiphilic version in hcDIGs of basal adipocytes set at 100, GPI-2350 50 μM, insulin 10 nM, glimepiride 20 μM

For `CCCCCCCCCCCCP1(=O)O[C@@H]2[C@H](O)[C@@H](O)[C@H](O)[C@@H](O)[C@@H]2O1` (stereo partly drawn) [GPI-2350, myo-inositol-1,2-cyclo-dodecylphosphonic acid], the “effect on LPL” value [1] was “not significantly affected”, the “effect on PLA2” value [2] was “not significantly affected” and the “effect on insulin/glimepiride-induced increase in hydrophilic GPI-proteins in plasma membranes” value ([3]; 50 μM) was “completely blocked”. The “aP hydroph. IcDIGs” value [3, 5] was 2 ± 2 arb. units, the “aP hydroph. hcDIGs” value [3, 5] was 10 ± 1 arb. units and the “effect on insulin-/glimepiride-induced dissociation of pp59Lyn and Gce1 from caveolin” value [4] was “completely abrogated; also recorded: almost complete blockade”.
